{
  "source": "patent US20100240754A1",
  "about": "“UNSATURATED FATTY AMINO ACID DERIVATIVES AND USE THEREOF IN DERMAL COSMETOLOGY” (Pierre Fabre Demo-Cosmetique, priority 2007, published 2010)",
  "assay_type_in_all_cases": "cell-based, murine",
  "key": {"[1]": {"system": "fibroblast line L929", "assay": "Test of TBARS: lipid peroxidation after H2O2-Fe2+/Fe3+ stress", "details": "400 μg/mL"}, "[2]": {"system": "fibroblast cell line L929", "assay": "In vitro assay of intracellular OASes (H2DCF-DA probe) after H2O2/iron oxidative stress", "details": "dose 400 μg/mL; L929, H2O2/iron stress", "text": "We have set up a model for an in vitro study of oxidative stress induced by H2O2/iron, H2O2 which massively generates intracellular OASes by a chain reaction triggered by the oxidation of membrane lipids.\nThis technique is based on the use of a fluorescent probe, 6-carboxy-2′, 7′ dichlorodihydrofluorescein diacetate, di(acetoxymethyl ester) (H2DCF-DA), which, once it has penetrated the cell, is deacetylated by the intracellular esterases then forming H2DCF. This product is oxidized by intracellular OASes into a highly fluorescent compound: 2′,7′-dichlorofluorescein, (DCF) (Suematsu M et al, 1996, Free Radicals Practical Approach, Punchard ed. P83-99).\nCutaneous murine fibroblast cell line L929.\nThe tested concentrations are non-cytotoxic concentrations. Cytoxicity was evaluated by the neutral red method, after incubation of the product for 3 hours.\nThe reference anti-radical product is vitamin E or α-tocopherol (MW: 430.7) (SIGMA, ref.: T-1539).\nThe mother solution is prepared at 400 mg/mL in DMSO and stored at −20° C. The pretreatment solution is prepared extemporaneously at 400 μg/mL in a culture medium without FCS.\nFor evaluating unsaturated fatty amino acid derivatives, the dilutions are prepared in the culture medium extemporaneously for a range of concentrations of 0.02, 0.2, 2 and 20 ng/mL.\nThe cells of the fibroblast line L929 are sown in microplates with 96 wells with a flat bottom in 100 μL of DMEM supplemented with 10% of FCS, and they are then incubated overnight at 37° C. in a humid atmosphere with 5% CO2.\nThe dilutions of the products to be tested and of the reference molecule are conducted in culture mediums without FCS, and then deposited in 7 wells in an amount of 100 μL per well.\nThe cells are then incubated for 3 hours at 37° C. in a humid atmosphere with 5% CO2.\nThe cells are rinsed with PBS 1× in an amount of 100 μL per well. Next they are set to incubate for 30 min at 37° C. in a humid atmosphere with 5% CO2 and with 50 μL of H2DCF-DA probe at 5 μM.\nAfter 30 min in contact with the probe alone, the cells are incubated for 30 min at 37° C. in a humid atmosphere with […] with addition of 25 μL of H2O2 at 800 μM and 25 μL of 8 mM ferrous and ferric iron solution, in order to have final concentrations of 200 μM of H2O2 and 2 mM of ferrous and ferric iron.\nThe cells are then rinsed with PBS 1× in an amount of 100 μL per well, and then incubated for 30 min at 37° C. in a humid atmosphere with 5% CO2 and with 100 μL of PBS 1×.\nThese 1 h 30 minutes of incubation at 37° C. allow the intracellular esterases to deacetylate the H2DCF probe, oxidizable by intracellular OASes into DCF; a fluorescent compound, the formation of which is proportional to the amount of intracellular OASes.\nThe fluorescence intensity is read with the cytofluorimeter at λexcitation=485 nm and λemission=530 nm. It reflects the amount of produced intracellular OASes.\nWith the below ratio, it is possible to calculate for each concentration of tested product the % of protection against production of intracellular OASes (since the fluorescence intensity or FI expresses intracellular release of OASes).\nThe values indicated in Table 3 are percentages of inhibition of intracellular OAS production following an exogenous oxidative stress, relatively to <> cells (100%) and to <> cells (0%)."}, "[3]": {"system": "B16-F10 line", "assay": "Synthesis of melanin, colorimetric assay, basal and after alpha MSH stimulation", "details": "Mus musculus, alpha MSH-stimulated B16-F10, read-out: inhibition of melanogenesis", "protocol": "6.1) The modulating effect of unsaturated fatty amino-acid derivatives on melanogenesis was analyzed. For this, a measurement of the synthesis of melanin by a colorimetric assay is carried out on a cell line of murine melanomas: the B16-F10 line.\nThe effect of the products is investigated in a basal situation and after stimulating melanogenesis by a MSH for determining the depigmenting power.\nThe level of extracellular and intracellular melanin is then measured by spectrophotometry at a wave length of 405 nm according to the procedure (Meun, Y. J. et al.). The amount of pigment is determined by a standard range of melanin and by analysis on the Microwin software package (Berthold Biotechnologies). An assay of total proteins is conducted for samples of intracellular melanin by the BCA-Copper method at 540 nm. The standard range is produced with a standard protein, BSA (Bovine Albumin Serum)."}},
  "data": [
    {"smiles": "Cc1c(C)c2c(c(C)c1O)CC[C@@](C)(CCC[C@H](C)CCC[C@H](C)CCCC(C)C)O2", "note": "[Vitamin E, α-tocopherol, reference compound]", "values": [
      {"measurement": "protection against lipid peroxidation, in words", "setting": "[1]", "value": "very effectively protects cell membranes"},
      {"measurement": "percentage of inhibition of intracellular OAS production (protection)", "setting": "[2]", "value": 31, "unit": "%"}
    ]},
    {"smiles": "Oc1ccc(O)cc1", "note": "[hydroquinone, reference compound]", "values": [
      {"measurement": "inhibition at 1 µg/mL", "setting": "[3]; 1 μg/mL", "value": "~60", "unit": "%"}
    ]},
    {"smiles": "O=C1O[C@H]([C@@H](O)CO)C(O)=C1O", "note": "[vitamin C, reference compound]", "values": [
      {"measurement": "inhibition at 40 µg/mL", "setting": "[3]; 40 μg/mL", "value": "~60", "unit": "%"}
    ]}
  ]
}
